# Assay results: PMC6303473 (Nature Communications, 2018)
# Test system: CD8+ T cells from HLA-B*44:02, HLA-B*44:03, or HLA-B*18:01 individuals
# Format: cell-based, human
# Details: ICS
# Text: Fig. 1 NP338 elicits robust CD8^+ T cell responses only in the context of HLA-B*37:01. a–d Crystal structures of a HLA-B*37:01 (purple), b HLA-B*18:01 (blue), and c HLA-B*44:05 (yellow) in complex with NP338 WT (represented in black stick). d is showing an overlay of the three peptide–HLA complexes in cartoon representation, with NP338 colored accordingly to the bound HLA, namely, purple (HLA-B*37:01), blue (HLA-B*18:01), and yellow (HLA-B*44:05). e–g PBMCs from HLA-B*37:01^+ donors (n = 5), HLA-B*44:02^+ donors (n = 5), HLA-B*44:03^+ donors (n = 5), or HLA-B*18:01^+ donors (n = 5) were stimulated with a pool of NP338 peptides (10 μM each peptide, 30 μM total), and specificity was assessed in an ICS assay against 3 μM NP338 pool (1 μM each peptide, HLA-B*44:02^+ donors) directly into the well or 30 μM (10 μM each peptide, all other donors) NP338-pooled pulsed APC lines (HLA-B*37:01, HLA-B*44:03, and HLA-B*18:01). CD8^+ T cells are gated on lymphocytes, singlets, live^+ (when stained with the second antibody cocktail only) CD3^mid-high, CD8^+ T cells; as per Supplementary Fig. 2a. e Representative dot plots of IFNγ^+TNFα^+ production by pooled CD8^+ T cell lines derived from HLA-B*37:01^+, HLA-B*44:02^+, HLA-B*44:03^+, or HLA-B*18:01^+ donors, towards a pool of NP338 peptides. […]
row,Compound,CD8+ T cell response to non-specific stimulation
1,CCCCCCCCCCCCCC(=O)O[C@@H]1[C@@H](C)[C@@]2(O)[C@@H](C=C(CO)C[C@]3(O)C(=O)C(C)=C[C@@H]23)[C@@H]2C(C)(C)[C@]12OC(C)=O [phorbol 12-myristate 13-acetate],responded strongly
2,Concanavalin A,responded strongly
